Read-outs that look alike come from different tables or passages of the source.
Molecular target: T1, human FXR (NR1H4) (Homo sapiens, UniProt Q96RI1)
T1 sequence (Q96RI1 1-486): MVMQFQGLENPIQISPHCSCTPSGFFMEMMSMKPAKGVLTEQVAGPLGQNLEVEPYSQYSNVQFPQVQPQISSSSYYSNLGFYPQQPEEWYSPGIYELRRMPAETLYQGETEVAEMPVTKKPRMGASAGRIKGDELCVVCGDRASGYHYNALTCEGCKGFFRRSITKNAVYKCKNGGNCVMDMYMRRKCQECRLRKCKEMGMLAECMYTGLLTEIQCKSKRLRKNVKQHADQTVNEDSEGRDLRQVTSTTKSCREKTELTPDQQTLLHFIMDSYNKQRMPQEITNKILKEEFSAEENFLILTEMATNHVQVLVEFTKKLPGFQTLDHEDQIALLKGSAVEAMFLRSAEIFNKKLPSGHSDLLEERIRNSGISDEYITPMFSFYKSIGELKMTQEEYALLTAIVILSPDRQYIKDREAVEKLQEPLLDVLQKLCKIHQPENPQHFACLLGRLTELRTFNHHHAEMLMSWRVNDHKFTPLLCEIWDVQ
Experiment: Human FXR (NR1H4) Assay: Gal4 promoter driven luciferase reporter transactivation in CHO cells (Indigo Bioscience kit IB00601)
Assay type: cell-based
Settings: for Emax: CHO, read-out: Efficacy (%); for EC50: potency range, Human FXR (NR1H4) reporter assay in CHO cells, read-out: EC50
Excerpt: Human FXR (NR1H4) Assay Determination of a ligand mediated Gal4 promoter driven transactivation to quantify ligand binding mediated activation of FXR. FXR Reporter Assay kit purchased from Indigo Bioscience (Catalogue number: IB00601) to determine the potency and efficacy of compounds that can induce FXR activation. The principle application of this reporter assay system is to quantify functional activity of human FXR. The assay utilizes non-human mammalian cells, CHO (Chinese hamster ovary) cells engineered to express human NR1H4 protein (referred to as FXR). Reporter cells also incorporate the cDNA encoding beetle luciferase which catalyzes the substrates and yields photon emission. Luminescence intensity of the reaction is quantified using a plate-reading luminometer, Envision. Reporter Cells include the luciferase reporter gene functionally linked to an FXR responsive promoter. Thus, quantifying changes in luciferase expression in the treated reporter cells provides a sensitive surrogate measure of the changes in FXR activity. […] The assay is according to the manufacturer's instructions. […] Retrieve Reporter Cells from −80° C. storage. Perform a rapid thaw of the frozen cells by transferring a 10 ml volume of 37° C. cell recovery medium into the tube of frozen cells. […] Retrieve the tube of Reporter Cell Suspension from the water bath. […] Dispense 90 μl of cell suspension into each well of the 96-well Assay Plate. Transfer the plate into 37° C. incubator, allowing the cells adherent to the bottom of the well. Dilute compounds in Dilution Plate (DP), and administrate to cells at Assay Plate (AP). […] Cells were incubated for additional 22 hours before luciferase activities were measured. Thirty minutes before intending to quantify FXR activity, remove Detection Substrate and Detection Buffer from the refrigerator and place them in a low-light area so that they may equilibrate to room temperature. Remove the plate's lid and discard all media contents by ejecting it into an appropriate waste container. Gently tap the inverted plate onto a clean absorbent paper towel to remove residual droplets. Cells will remain tightly adhered to well bottoms. Add 100 μl of luciferase detection reagent to each well of the assay plate. Allow the assay plate to rest at room temperature for at least 5 minutes following the addition of LDR. Set the instrument (Envision) to perform a single 5 second “plate shake” prior to reading the first assay well. Read time may be 0.5 second (500 mSec) per well.

[1] = efficacy normalized to CDCA set as 100%

Row | Structure (SMILES) | Emax [1] [%] | EC50 [nM] | Emax [%]
1 | O=C(NCc1ccc(F)c(F)c1)N1C2CCC1CC(OCc1c(-c3c(Cl)cccc3Cl)noc1C1CC1)C2 (stereo not shown) [Example 733] | 175 | < 10 | 
2 | O=C(O)c1ccc(NC(=O)N2C3CCC2CC(OCc2c(-c4c(Cl)cccc4Cl)noc2C2CC2)C3)c(F)c1-c1ccccc1 (stereo not shown) [Example 798] | 124 | 10 to 100 | 
3 | O=C(O)c1ccc2c(c1)CCN2C(=O)N1C2CCC1CC(OCc1c(-c3ccccc3OC(F)(F)F)noc1C1CC1)C2 (stereo not shown) [Example 592] |  | > 1000 | 227
4 | O=C(O)c1ccc(NC(=O)N2C3CCC2CC(OCc2c(-c4c(Cl)cccc4Cl)noc2C2CC2)C3)cc1C(F)(F)F (stereo not shown) [Example 195] |  | 10 to 100 | 
5 | O=C(Nc1cccc(-c2ccc(C(F)(F)F)nc2)c1)N1C2CCC1CC(OCc1c(-c3c(Cl)cccc3Cl)noc1C1CC1)C2 (stereo not shown) [Example 706] | 207 | 10 to 100 | 
6 | O=C(Nc1cccc2ccccc12)N1C2CCC1CC(OCc1c(-c3c(Cl)cccc3Cl)noc1C1CC1)C2 (stereo not shown) [Example 19] |  | 10 to 100 | 
7 | N#Cc1ccc(NC(=O)N2C3CCC2CC(OCc2c(-c4c(Cl)cccc4Cl)noc2C2CC2)C3)cc1 (stereo not shown) [Example 9] |  | 10 to 100 | 
8 | O=C(NS(=O)(=O)C1CC1)c1ccc(NC(=O)N2C3CCC2CC(OCc2c(-c4ccccc4OC(F)(F)F)noc2C2CC2)C3)cc1 (stereo not shown) [Example 755] | 220 | 100 to 1000 | 
9 | O=C(O)c1ccc(NC(=O)N2C3CCC2CC(OCc2c(-c4ccccc4C4CC4)noc2C2CC2)C3)cc1-c1ccccc1 (stereo not shown) [Example 814] | 112 | 10 to 100 | 
10 | Cn1nnnc1-c1cccc(NC(=O)N2C3CCC2CC(OCc2c(-c4c(Cl)cccc4Cl)noc2C2CC2)C3)c1 (stereo not shown) [Example 186] |  | 10 to 100 | 
11 | CC(=O)N1CCC(c2cccc(NC(=O)N3C4CCC3CC(OCc3c(-c5c(Cl)cccc5Cl)noc3C3CC3)C4)c2)CC1 (stereo not shown) [Example 714] | 156 | 10 to 100 | 
12 | COC(=O)c1ccc2c(c1)N(C(=O)N1C3CCC1CC(OCc1c(-c4ccccc4OC(F)(F)F)noc1C1CC1)C3)CC2 (stereo not shown) [Example 589] |  | > 1000 | 76
13 | O=C(O)c1ccnc(NC(=O)N2C3CCC2CC(OCc2c(-c4ccccc4OC(F)(F)F)noc2C2CC2)C3)c1 (stereo not shown) [Example 770] | 93 | > 1000 | 
14 | CN(C)S(=O)(=O)NC(=O)c1cccc(NC(=O)N2C3CCC2CC(OCc2c(-c4ccccc4OC(F)(F)F)noc2C2CC2)C3)c1 (stereo not shown) [Example 265] |  | 100 to 1000 | 
15 | O=C(Nc1ccc2ccccc2c1)N1C2CCC1CC(OCc1c(-c3c(Cl)cccc3Cl)noc1C1CC1)C2 (stereo not shown) [Example 20] |  | 10 to 100 | 
16 | COC(=O)c1ccc(NC(=O)N2C3CCC2CC(OCc2c(-c4c(Cl)cccc4Cl)noc2C2CC2)C3)cc1F (stereo not shown) [Example 196] |  | < 10 | 
17 | O=C(O)c1ccc(NC(=O)N2C3CCC2CC(OCc2c(-c4ccccc4C(F)(F)F)noc2C2CC2)C3)cc1-c1ccccc1 (stereo not shown) [Example 815] | 36 | 10 to 100 | 
18 | N#Cc1cccc(NC(=O)N2C3CCC2CC(NCc2c(-c4c(Cl)cccc4Cl)noc2C2CC2)C3)c1 (stereo not shown) [Example 93] |  | 10 to 100 | 
19 | CCOC(=O)c1cccc(NC(=O)N2C3CCC2CC(OCc2c(-c4ccccc4OC(F)(F)F)noc2C2CC2)C3)n1 (stereo not shown) [Example 766] | 192 | > 1000 | 
20 | CC(C)(C)c1ccc(C(=O)NC(=O)N2C3CCC2CC(OCc2c(-c4c(Cl)cccc4Cl)noc2C2CC2)C3)cc1 (stereo not shown) [Example 806] | 5 | 10 to 100 | 
21 | O=C(O)c1cccc(NC(=O)N2C3CCC2CC(NCc2c(-c4c(Cl)cccc4Cl)noc2C2CC2)C3)c1 (stereo not shown) [Example 828] | 59 | 10 to 100 | 
22 | CCOC(=O)c1ccc(NC(=O)N2C3CCC2CC(NCc2c(-c4c(Cl)cccc4Cl)noc2C2CC2)C3)c(OCC)c1 (stereo not shown) [Example 829] | 57 | 10 to 100 | 
23 | CS(=O)(=O)NC(=O)c1ccc(NC(=O)N2C3CCC2CC(OCc2c(-c4ccccc4OC(F)(F)F)noc2C2CC2)C3)cc1 (stereo not shown) [Example 752] | 239 | > 1000 | 
24 | O=C(O)c1ccc(NC(=O)N2C3CCC2CC(OCc2c(-c4c(Cl)cccc4Cl)noc2C2CC2)C3)cc1-c1cncnc1 (stereo not shown) [Example 782] | 20 | 10 to 100 | 

From patent publication US10597391B2, “Urea-containing isoxazole derivatives as FXR agonists and methods of use thereof” (Enanta Pharmaceuticals, Inc., priority 2016, dated 2020)
